{"source": "DBAASP", "test_in_all_cases": "≥ marks a high value that may be exact or a test limit, other limits are often not marked, values filed in µg/mL are converted to µM", "key": {"[1]": {"system": "Acinetobacter baumannii MTCC 9829"}, "[2]": {"system": "Alcaligenes faecalis MTCC 1937"}, "[3]": {"system": "Alkalihalobacillus alcalophilus MTCC 860"}, "[4]": {"system": "Bordetella bronchiseptica MTCC 6837"}, "[5]": {"system": "Citrobacter freundii MTCC 1658"}, "[6]": {"system": "Citrobacter koseri MTCC 1657"}, "[7]": {"system": "Corynebacterium glutamicum MTCC 2679"}, "[8]": {"system": "Enterococcus faecalis MTCC 439"}, "[9]": {"system": "Escherichia coli K12 MG1655"}, "[10]": {"system": "Haemophilus influenzae MTCC 621"}, "[11]": {"system": "Klebsiella aerogenes MTCC 111"}, "[12]": {"system": "Klebsiella oxytoca MTCC 2275"}, "[13]": {"system": "Klebsiella pneumoniae MTCC 7407"}, "[14]": {"system": "Pluralibacter gergoviae MTCC 3826"}, "[15]": {"system": "Proteus mirabilis MTCC 3158"}, "[16]": {"system": "Proteus vulgaris MTCC 1771"}, "[17]": {"system": "Pseudomonas aeruginosa MTCC 3542"}, "[18]": {"system": "Salmonella enterica MTCC 9844"}, "[19]": {"system": "Salmonella enterica subsp. enterica serovar Typhimurium ATCC 14028"}, "[20]": {"system": "Shigella boydii MTCC 11947"}, "[21]": {"system": "Shigella flexneri MTCC 1457"}, "[22]": {"system": "Staphylococcus aureus MTCC 3160"}, "[23]": {"system": "Staphylococcus haemolyticus MTCC 3383"}, "[24]": {"system": "Stenotrophomonas maltophilia MTCC 1890"}, "[25]": {"system": "Vibrio cholerae MTCC 3904"}, "[26]": {"system": "Escherichia coli C25"}, "[27]": {"system": "Staphylococcus aureus ATCC 25923"}, "[28]": {"system": "Escherichia coli ATCC 25922"}, "[29]": {"system": "Pseudomonas aeruginosa 21328"}, "[30]": {"system": "Pseudomonas aeruginosa 25349"}, "[31]": {"system": "Pseudomonas aeruginosa ATCC 27853"}, "[32]": {"system": "Pseudomonas aeruginosa CICC 10419"}, "[33]": {"system": "Pseudomonas aeruginosa CICC 11411"}, "[34]": {"system": "Pseudomonas aeruginosa CICC 11421"}, "[35]": {"system": "Pseudomonas aeruginosa CICC 11431"}, "[36]": {"system": "Pseudomonas aeruginosa CICC 21625"}, "[37]": {"system": "Pseudomonas aeruginosa CICC 21630"}, "[38]": {"system": "Staphylococcus aureus ATCC 29213"}, "[39]": {"system": "Aeromonas hydrophila"}, "[40]": {"system": "Bacillus cereus"}, "[41]": {"system": "Bacillus subtilis"}, "[42]": {"system": "Candida albicans"}, "[43]": {"system": "Corynebacterium glutamicum"}, "[44]": {"system": "Cryptococcus neoformans"}, "[45]": {"system": "Escherichia coli"}, "[46]": {"system": "Pseudomonas aeruginosa"}, "[47]": {"system": "Pseudomonas fluorescens"}, "[48]": {"system": "Shigella flexneri"}, "[49]": {"system": "Staphylococcus aureus"}, "[50]": {"system": "Staphylococcus epidermidis"}, "[51]": {"system": "Vibrio alginolyticus"}, "[52]": {"system": "Vibrio parahaemolyticus"}}, "data": [{"compound": "CC[C@H](C)[C@H](NC(=O)[C@@H](NC(=O)[C@H](CCC(N)=O)NC(=O)[C@H](CCCN=C(N)N)NC(=O)[C@H](C)NC(=O)[C@H](C)NC(=O)[C@H](C)NC(=O)[C@H](Cc1c[nH]c2ccccc12)NC(=O)[C@@H](N)CCC(=O)O)C(C)C)C(=O)N[C@H](C(=O)N[C@@H](Cc1cnc[nH]1)C(=O)N[C@@H](C)C(=O)N[C@H](C(=O)N[C@@H](CCCN=C(N)N)C(=O)N[C@@H](CCCCN)C(=O)N[C@@H](Cc1ccc(O)cc1)C(=O)O)[C@@H](C)O)[C@@H](C)CC", "note": "[EWAAARQVIIHATRKY]", "values": [{"measurement": "MIC", "setting": "[1]", "result": "≥ 66.9", "unit": "µM"}, {"measurement": "MIC", "setting": "[2]", "result": "≥ 66.9", "unit": "µM"}, {"measurement": "MIC", "setting": "[3]", "result": "≥ 66.9", "unit": "µM"}, {"measurement": "MIC", "setting": "[4]", "result": "≥ 66.9", "unit": "µM"}, {"measurement": "MIC", "setting": "[5]", "result": "≥ 66.9", "unit": "µM"}, {"measurement": "MIC", "setting": "[6]", "result": "≥ 66.9", "unit": "µM"}, {"measurement": "MIC", "setting": "[7]", "result": "≥ 33.5", "unit": "µM"}, {"measurement": "MIC", "setting": "[8]", "result": "≥ 66.9", "unit": "µM"}, {"measurement": "MIC", "setting": "[9]", "result": "≥ 66.9", "unit": "µM"}, {"measurement": "MIC", "setting": "[10]", "result": "≥ 66.9", "unit": "µM"}, {"measurement": "MIC", "setting": "[11]", "result": "≥ 66.9", "unit": "µM"}, {"measurement": "MIC", "setting": "[12]", "result": "≥ 66.9", "unit": "µM"}, {"measurement": "MIC", "setting": "[13]", "result": "≥ 66.9", "unit": "µM"}, {"measurement": "MIC", "setting": "[14]", "result": "≥ 66.9", "unit": "µM"}, {"measurement": "MIC", "setting": "[15]", "result": "≥ 66.9", "unit": "µM"}, {"measurement": "MIC", "setting": "[16]", "result": "≥ 66.9", "unit": "µM"}, {"measurement": "MIC", "setting": "[17]", "result": "≥ 66.9", "unit": "µM"}, {"measurement": "MIC", "setting": "[18]", "result": "≥ 66.9", "unit": "µM"}, {"measurement": "MIC", "setting": "[19]", "result": "> 66.9", "unit": "µM"}, {"measurement": "MIC", "setting": "[20]", "result": "≥ 66.9", "unit": "µM"}, {"measurement": "MIC", "setting": "[21]", "result": "≥ 66.9", "unit": "µM"}, {"measurement": "MIC", "setting": "[22]", "result": "≥ 66.9", "unit": "µM"}, {"measurement": "MIC", "setting": "[23]", "result": "≥ 66.9", "unit": "µM"}, {"measurement": "MIC", "setting": "[24]", "result": "≥ 66.9", "unit": "µM"}, {"measurement": "MIC", "setting": "[25]", "result": "≥ 66.9", "unit": "µM"}]}, {"compound": "CC[C@H](C)[C@H](NC(=O)CNC(=O)[C@H](CCCN=C(N)N)NC(=O)[C@@H](NC(=O)[C@@H](NC(=O)[C@H](CCCN=C(N)N)NC(=O)[C@@H](NC(=O)[C@@H](NC(=O)[C@@H](N)CCCCN)[C@@H](C)CC)[C@@H](C)CC)C(C)C)[C@@H](C)CC)C(=O)N[C@H](C(=O)N[C@@H](CCCN=C(N)N)C(=O)N[C@@H](CCCN=C(N)N)C(=O)N[C@@H](CCCN=C(N)N)C(N)=O)[C@@H](C)CC", "note": "[KIIRVIRGIIRRR]", "values": [{"measurement": "MIC", "setting": "[26]", "result": 9.5, "unit": "µM"}, {"measurement": "MIC", "setting": "[27]", "result": 9.5, "unit": "µM"}]}, {"compound": "CC(C)C[C@H](NC(=O)[C@H](CCCN=C(N)N)NC(=O)[C@H](CCCN=C(N)N)NC(=O)[C@H](CC(C)C)NC(=O)[C@H](Cc1c[nH]c2ccccc12)NC(=O)[C@H](CCCN=C(N)N)NC(=O)[C@H](CCCN=C(N)N)NC(=O)[C@H](CCCN=C(N)N)NC(=O)[C@H](CC(C)C)NC(=O)[C@H](CCCN=C(N)N)NC(=O)[C@H](CCCN=C(N)N)NC(=O)[C@@H](N)CC(C)C)C(=O)N[C@@H](CCCN=C(N)N)C(=O)N[C@@H](CCCN=C(N)N)C(=O)N[C@@H](CCCN=C(N)N)C(N)=O", "note": "[LRRLRRRWLRRLRRR]", "values": [{"measurement": "MIC", "setting": "[28]", "result": "> 57.7", "unit": "µM"}, {"measurement": "MIC", "setting": "[29]", "result": "≥ 57.7", "unit": "µM"}, {"measurement": "MIC", "setting": "[30]", "result": 20.4, "unit": "µM"}, {"measurement": "MIC", "setting": "[31]", "result": 14.4, "unit": "µM"}, {"measurement": "MIC", "setting": "[32]", "result": "≥ 115", "unit": "µM"}, {"measurement": "MIC", "setting": "[33]", "result": "≥ 57.7", "unit": "µM"}, {"measurement": "MIC", "setting": "[34]", "result": "≥ 115", "unit": "µM"}, {"measurement": "MIC", "setting": "[35]", "result": 28.8, "unit": "µM"}, {"measurement": "MIC", "setting": "[36]", "result": 28.8, "unit": "µM"}, {"measurement": "MIC", "setting": "[37]", "result": 14.4, "unit": "µM"}, {"measurement": "MIC", "setting": "[38]", "result": 28.8, "unit": "µM"}]}, {"compound": "CC(C)C[C@H](NC(=O)[C@H](CO)NC(=O)[C@H](CC(C)C)NC(=O)[C@H](Cc1cnc[nH]1)NC(=O)[C@H](CO)NC(=O)[C@@H](N)CCC(N)=O)C(=O)N[C@H]1CSSC[C@@H](C(=O)N[C@@H](CCCCN)C(=O)N[C@@H](Cc2ccccc2)C(=O)O)NC(=O)[C@@H]2CSSC[C@@H]3NC(=O)[C@H](CSSC[C@H](NC(=O)[C@H](CC(N)=O)NC3=O)C(=O)N[C@H]3CSSC[C@H](NC(=O)CNC(=O)[C@H](CCCCN)NC(=O)[C@H](Cc4ccc(O)cc4)NC(=O)[C@H](CCCN=C(N)N)NC(=O)[C@H](CC(N)=O)NC3=O)C(=O)NCC(=O)N[C@@H](Cc3ccccc3)C(=O)N2)NC(=O)[C@H](Cc2c[nH]c3ccccc23)NC(=O)[C@H](CCCN=C(N)N)NC1=O", "note": "[QSHLSLCRWCCNCCNRYKGCGFCCKF]", "values": [{"measurement": "MIC", "setting": "[39]", "result": "≥ 50", "unit": "µM"}, {"measurement": "MIC", "setting": "[40]", "result": "≥ 50", "unit": "µM"}, {"measurement": "MIC", "setting": "[41]", "result": 8.84, "unit": "µM"}, {"measurement": "MIC", "setting": "[42]", "result": "> 50", "unit": "µM"}, {"measurement": "MIC", "setting": "[43]", "result": 8.84, "unit": "µM"}, {"measurement": "MIC", "setting": "[44]", "result": "≥ 50", "unit": "µM"}, {"measurement": "MIC", "setting": "[45]", "result": "> 50", "unit": "µM"}, {"measurement": "MIC", "setting": "[46]", "result": 35.4, "unit": "µM"}, {"measurement": "MIC", "setting": "[47]", "result": 17.7, "unit": "µM"}, {"measurement": "MIC", "setting": "[48]", "result": "≥ 50", "unit": "µM"}, {"measurement": "MIC", "setting": "[49]", "result": "> 50", "unit": "µM"}, {"measurement": "MIC", "setting": "[50]", "result": "≥ 50", "unit": "µM"}, {"measurement": "MIC", "setting": "[51]", "result": "≥ 50", "unit": "µM"}, {"measurement": "MIC", "setting": "[52]", "result": "≥ 50", "unit": "µM"}]}]}
